Measured values: PubChem BioAssay (NCI)
“And” between values parts separate entries of the source, which are not always exact repeats. Equal entries are not always repeated.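 Where inhibition never reached the appropriate level, the endpoint shown equals the highest concentration tested. Otherwise, values were interpolated linearly from a five-concentration, 48-hour dose response in 96-well plates. Here, GI50 denotes the concentration required for 50% inhibition of growth. Definition used: TGI = concentration required for complete inhibition of growth.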 Where a SMILES comes first, the peptide text is derived from it. [ ]: non-standard residue; d: D form. The star is where a group is joined. ξ: configuration not given here. NMeY = CN[C@@H](Cc1ccc(O)cc1)C(=O)O; Cbz = O=C(OCc1ccccc1)*; ξA = CC(N)C(=O)O

Tests used:
Test in all cases: NCI anticancer screen, dose series, 48 h
A498 renal = system: A498 renal
CAKI-1 renal = system: CAKI-1 renal
HCC-2998 colon = system: HCC-2998 colon
HOP-92 NSCLC = system: HOP-92 NSCLC
LOX IMVI melanoma = system: LOX IMVI melanoma
MALME-3M melanoma = system: MALME-3M melanoma
PC-3 prostate = system: PC-3 prostate
RPMI-8226 leukemia = system: RPMI-8226 leukemia
SK-MEL-28 melanoma = system: SK-MEL-28 melanoma
SN12C renal = system: SN12C renal
TK-10 renal = system: TK-10 renal

Row | Structure (SMILES) | TGI (A498 renal) | TGI (CAKI-1 renal) [µM] | TGI (HCC-2998 colon) | TGI (HOP-92 NSCLC) | TGI (LOX IMVI melanoma) | TGI (MALME-3M melanoma) [µM] | TGI (PC-3 prostate) | TGI (RPMI-8226 leukemia) | TGI (SK-MEL-28 melanoma) | TGI (SN12C renal) | TGI (TK-10 renal) | GI50 (A498 renal) [µM] | GI50 (HCC-2998 colon) [µM] | GI50 (HOP-92 NSCLC) [µM] | GI50 (LOX IMVI melanoma) [µM] | GI50 (RPMI-8226 leukemia) [µM] | GI50 (SK-MEL-28 melanoma) [µM] | GI50 (SN12C renal) [µM] | GI50 (TK-10 renal) [µM]
1 | COc1ccc(C[C@@H](C(=O)N[C@@H](C)C(N)=O)N(C)C(=O)[C@@H]2CCCN2C(=O)[C@H](CC(C)C)NC(=O)C(C)NC(=O)OCc2ccccc2)cc1 (stereo partly specified) (Cbz-[ξA]LP[NMeY](Me)A-NH2) | > 100 µM | > 100 | > 100 µM | > 100 µM | > 100 µM | > 100 | > 100 µM | > 100 µM | > 100 µM | > 100 µM | > 100 µM | – | – | – | – | – | – | – | –
2 | COC(=O)CN1Cc2cc(C)cc(c2O)CN(CC(=O)OC)Cc2cc(C)cc(c2O)CN(CC(=O)OC)Cc2cc(C)cc(c2O)CN(CC(=O)OC)Cc2cc(C)cc(c2O)C1 | 50 µM and > 100 µM | 50 | 50 µM and > 100 µM | > 50 µM and 97.5 µM | 50 µM and > 100 µM | 50 | 50 µM and > 100 µM | 50 µM and > 100 µM | 50 µM and > 100 µM | 50 µM and > 100 µM | 50 µM and > 100 µM | > 100 | 25.2 | 21.5 | 8.68 | 87.6 | 27.9 | 51.6 | > 100
3 | OC1C2CCCCN2C[C@@H](O)[C@H]1O (stereo partly specified) | > 100 µM | > 100 | > 100 µM | > 100 µM | > 100 µM | > 100 | > 100 µM | > 100 µM | > 100 µM | > 100 µM | > 100 µM | – | – | – | – | – | – | – | –
